Columns and labels:
AsPC1 cells = assay: Glycogen content in AsPC1 cells; assay type: cell-based, human; settings: AsPC1, CBS2, 3 hours
Description: Glycogen was quantified using the Glycogen Assay Kit II (colorimetric) from AbCam (ab169558) according to manufacturer's instructions. Briefly, approximately 2×10^6 cells were washed with ice-cold PBS and collected via scraping in 300 μL ice-cold ddH2O. Cells were immediately sonicated on ice for 5× […] pulses with a probe sonicator (Misonix Inc, model XL2000), then heated to 80° C. for 10 min. Samples were stored O/N at −20° C., then thawed, centrifuged at 12,000×g for 10 min and the supernatants collected for glycogen hydrolysis and quantification according to manufacturer's instructions.
C. […] Cells were treated in CBS2 for 3 hours with 30 μM devimistat or mock treated (FIG. 2C, left), or treated for 3 hours with the indicated devimistat doses (FIG. 2C, right).
D. Effects of anti-metabolism agents on glycogen consumption in PANC1 and AsPC1 cells. […] Glycogen content was measured in cell lysates (see Methods, above) and the results are presented in the left and middle graphs in FIG. 3D (note the different vertical scales for PANC1 and AsPC1 plots).

[1] = system: human H460 NSCLC xenografts; assay: Oral devimistat in H460 NSCLC xenografts; assay type: in vivo, mice; settings: oral 100 mg/kg on days 8, 15, 22, 29; vs 5% dextrose or untreated
Description: Human H460 NSCLC cells were obtained from American Type Cell Culture (ATCC) (catalog no. HTB-177, Manassas, VA). These cells tested negative for viral contamination using the Mouse Antibody Production (MAP) test, performed by Charles River Labs Molecular Division, upon the receipt of the tumor cells from ATCC. The tumor cells were maintained at 37° C. in a humidified 5% CO2 atmosphere in T225 tissue culture flasks containing 50 mL of Roswell Park Memorial Institute (RPMI)-1640 solution with 10% Fetal Bovine Serum (FBS) and 2 mM L-glutamine. Cells were split at a ratio of 1:10 every 2-3 days by trypsinization and resuspended in fresh medium in a new flask. Cells were harvested for experiments in the same way at 70-90% confluency.
CD1-Nu/Nu female mice, ˜4-6 weeks old were obtained from Charles River Laboratories. Mice were housed 5 to a cage in a micro-isolator room in the Department of Animal Laboratory Research of New York State University (SUNY) at Stony Brook. Light-dark cycles were 12 h each daily, with light from 7 a.m. to 7 p.m. […]
An acclimation period of 7 days was allowed between the arrival of the animal at the study site before tumor inoculation and experimentation. […] Tumor dimensions (length and width) were measured daily before, during and after treatment (using Vernier calipers) and the tumor volume was calculated using the prolate ellipsoid formula: (length×width^2)/2. […]

PANC1 cells = assay: Devimistat-induced cell death (ATP after recovery) in PANC1 cells; assay type: cell-based, human; settings: exogenous nutrient-free conditions
Description: Cells were plated at 80% confluency in complete RPMI in black, clear bottom 96-well plates or 35-mm dishes for ATP, protein and glycogen analysis, or glass coverslips for fluorescence visualization. To create low nutritional conditions, cells were seeded in complete media, after 24 hours cells were transferred to serum free RPMI for 18-24 hours. Prior to drug treatment, cells were incubated in a nutrient-free carbonate buffered salt solution (CBS2) for 3 hours. Drug treatments were then carried out in CBS2 with addition of nutrient sources and/or chemical agents as described in the Examples and Figures.
LOGIC: High throughput, plate reader assays for cell death essentially always ultimately depend on metabolic activity of cells to identify viability, directly or indirectly. Thus, strong inhibition of metabolic activity by anti-metabolism agents like those described herein can confound cell death analysis by such assays. […] The inventors thus used a recovery-based assay wherein cells are treated with anti-metabolic agents under conditions where mitochondrial metabolism is (or becomes) limiting on viability. After experimental treatment, drug and media are removed and cells are allowed to recover in serum-free RPMI. RPMI provides high levels of glucose in support of glycolytic ATP generation (independently of mitochondrial function), allowing viable cells to recover ATP levels that are ultimately measured in the plate assay to score cell viability. Under these conditions, cells that are committed to execution of cell death by the experimental treatment score as dead and cells that have not committed to cell death recover ATP levels and score as viable.
Specifically, after exposure to the treatments indicated, cells are allowed to recover ([…]) in RPMI without serum. Survival is assessed by conventional luminescence measurement of ATP levels after this recovery.
TECHNICAL DETAILS: Immediately after drug treatments, acute ATP levels of cells in black, clear bottom 96-well plates were measured using the CellTiter-Glo® Luminescent Cell Viability Assay (catalog #G775B) following Promega (Madison, WI) protocols. To assess cell viability, after drug treatments, drug/agent-containing medium was replaced with serum-free RPMI and cells were incubated for an additional 17-24 hours to allow recovery of viable cells, without additional cell division. After this recovery period ATP levels were measured using the CellTiter-Glo® Luminescent Cell Viability Assay as described above.
A. Exogenous glucose protects from devimistat-induced cell death. Four different cell lines were exposed for 15 hours (PANC1, AsPC1, H460) or 8 hours (PC3) to the indicated range of devimistat doses in the absence of exogenous nutrients (in carbonate buffered balanced salts solution, CBS2) after 3 hours of preincubation in CBS2 (for cell adaptation and to equilibrate soluble nutrient pools). Cells were exposed to the treatments indicated, followed by recovery (24 hours) in RPMI without serum (providing nutrient support for viable cell recovery, without serum factors for cell division). Survival is assessed by conventional luminescence measurement of ATP levels after this recovery. […] The relatively large quantitative differences in devimistat sensitivity between cell lines under exogenous nutrient deprivation are characteristic of each line (see examples below), with small experiment-to-experiment variation. […]

SMILES: O=C(O)CCCCC(CCSCc1ccccc1)SCc1ccccc1 (stereo not drawn) [devimistat, 6,8-bis(benzylsulfanyl)octanoic acid]
- glycogen consumption (AsPC1 cells): accelerated
- tumor growth in H460 NSCLC xenografts [1]: grew much more slowly
- sensitivity of PANC1 line to devimistat monotherapy (PANC1 cells): sensitive to devimistat monotherapy

Source: patent publication US20240415791A1, “Therapeutic methods and compositions for treating cancer using devimistat and a fatty acid oxidation inhibitor, a tyrosine kinase inhibitor, a glutaminase inhibitor, and/or a glycolysis inhibitor” (Cornerstone Pharmaceuticals, Inc., priority 2021, published 2024)
